# Measurements taken from BindingDB's records for doi:10.1016/j.ejmech.2019.111601 (National Institute of Pharmaceutical Education and Research …, 2019).
# Assays:
# [1] = molecular target: Prostaglandin G/H synthase 1 (Ovis aries) (UniProt P05979); test: Inhibition of ovine COX1 assessed as reduction in PGF2alpha incubated for 2 mins using arachidonic acid as substrate by ELISA
# [2] = molecular target: Prostaglandin G/H synthase 2 (Homo sapiens) (UniProt P35354); test: Inhibition of recombinant human COX2 assessed as reduction in PGF2alpha incubated for 2 mins using arachidonic acid as substrate by ELISA
# Chain of Prostaglandin G/H synthase 2 (Homo sapiens) (P35354 whole entry, looked up): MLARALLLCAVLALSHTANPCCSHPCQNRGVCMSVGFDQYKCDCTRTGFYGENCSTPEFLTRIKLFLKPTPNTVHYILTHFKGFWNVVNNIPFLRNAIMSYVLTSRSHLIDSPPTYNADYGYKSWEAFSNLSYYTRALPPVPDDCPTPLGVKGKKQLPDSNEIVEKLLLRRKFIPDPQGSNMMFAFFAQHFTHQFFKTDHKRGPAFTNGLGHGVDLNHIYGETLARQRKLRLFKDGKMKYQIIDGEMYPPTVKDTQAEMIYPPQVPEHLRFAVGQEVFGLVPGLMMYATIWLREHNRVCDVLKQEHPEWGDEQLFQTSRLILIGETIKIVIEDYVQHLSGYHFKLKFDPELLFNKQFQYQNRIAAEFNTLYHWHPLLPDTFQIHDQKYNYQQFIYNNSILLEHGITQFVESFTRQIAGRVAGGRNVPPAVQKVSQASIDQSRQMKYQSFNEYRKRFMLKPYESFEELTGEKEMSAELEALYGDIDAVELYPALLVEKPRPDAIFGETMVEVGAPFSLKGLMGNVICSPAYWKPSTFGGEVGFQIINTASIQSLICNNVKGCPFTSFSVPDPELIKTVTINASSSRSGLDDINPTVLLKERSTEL
IC50 [1],IC50 [2],SMILES
17.8 µM,0.915 µM,CC(C)(C)OC(=O)N(C1=CC(=O)CCC1)c1ccc(Cl)cc1
39.9 µM,0.367 µM,CC(=O)N(C1=CC(=O)CCC1)c1ccc(Cl)cc1
38 µM,0.513 µM,O=C1C=C(Nc2ccc(Cl)cc2)CCC1
